Test results reported in ChEMBL document CHEMBL5291721, “A preclinical secondary pharmacology resource illuminates target-adverse drug reaction associations of marketed drugs” (Nat Commun, 2023).

Molecular target: T1, Alpha-1A adrenergic receptor (Homo sapiens, UniProt P35348)
T1 sequence (P35348 whole entry): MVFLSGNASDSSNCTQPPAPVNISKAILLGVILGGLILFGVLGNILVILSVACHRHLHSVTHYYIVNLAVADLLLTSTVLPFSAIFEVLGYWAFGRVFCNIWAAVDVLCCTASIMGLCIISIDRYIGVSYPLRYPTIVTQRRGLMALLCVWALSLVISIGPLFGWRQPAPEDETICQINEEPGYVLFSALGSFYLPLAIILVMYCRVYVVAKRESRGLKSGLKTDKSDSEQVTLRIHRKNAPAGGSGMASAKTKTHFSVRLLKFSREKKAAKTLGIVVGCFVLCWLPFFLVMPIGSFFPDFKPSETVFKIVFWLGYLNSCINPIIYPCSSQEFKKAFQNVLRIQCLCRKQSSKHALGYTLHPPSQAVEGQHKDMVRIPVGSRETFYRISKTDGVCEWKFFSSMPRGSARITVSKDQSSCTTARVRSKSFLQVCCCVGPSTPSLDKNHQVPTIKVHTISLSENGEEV
Type: functional, cell-based
Also: assay procedure not described here.

## CN1CCC[C@@H]1Cc1c[nH]c2ccc(CCS(=O)(=O)c3ccccc3)cc12
  AC50: > 30 µM

## COc1nccnc1NS(=O)(=O)c1ccc(N)cc1
  AC50: > 30 µM

## O=C(Nc1cccc2c(=O)cc(-c3nnn[nH]3)oc12)c1ccc(OCCCCc2ccccc2)cc1
  AC50: > 30 µM

## NC(=O)c1nc(F)c[nH]c1=O
  AC50: > 30 µM

## CN(C)CCCN1C(=O)c2cc([N+](=O)[O-])ccc2Oc2ccccc21
  AC50: > 30 µM

## O=S(=O)(O)CCS [2-MERCAPTOETHANESULFONIC ACID]
  AC50: > 30 µM

## O=C(O)COc1nn(Cc2ccccc2)c2ccccc12 [BENDAZAC]
  AC50: > 30 µM

## Cc1ccc([C@@H]2O[C@H](CO)[C@@H](O)[C@H](O)[C@H]2O)cc1Cc1ccc(-c2ccc(F)cc2)s1 [CANAGLIFLOZIN ANHYDROUS]
  AC50: > 30 µM

## O=C(O)CCCc1ccc(N(CCCl)CCCl)cc1 [CHLORAMBUCIL]
  AC50: > 30 µM

## CN(C)CCN(Cc1ccc(Cl)cc1)c1ccccn1 [CHLOROPYRAMINE]
  AC50: > 30 µM

## O=C(O)c1cc(=O)c2ccccc2o1 [CHROMOCARB]
  AC50: > 30 µM

## CN(CC(=O)O)C(=N)N [CREATINE]
  AC50: > 30 µM

## N[C@@H](CSSC[C@H](N)C(=O)O)C(=O)O [CYSTINE]
  AC50: > 30 µM

## Cn1c(=O)c2c(ncn2CC(O)CO)n(C)c1=O (configuration not stated) [DYPHYLLINE]
  AC50: > 30 µM

## C[C@]12CC[C@@H]3c4ccc(O)cc4CC[C@H]3[C@@H]1CC[C@@H]2OC(=O)CCC1CCCC1 [ESTRADIOL CYPIONATE]
  AC50: > 30 µM

## CC1(C)O[C@@H]2C[C@H]3[C@@H]4CCC5=CC(=O)CC[C@]5(C)[C@@]4(F)[C@@H](O)C[C@]3(C)[C@]2(C(=O)CCl)O1 [HALCINONIDE]
  AC50: > 30 µM

## C[C@]12CCC(=O)C=C1CC[C@@H]1[C@@H]2[C@@H](O)C[C@@]2(C)[C@H]1CC[C@]2(O)C(=O)COC(=O)CCC(=O)O [HYDROCORTISONE HEMISUCCINATE ANHYDROUS]
  AC50: > 30 µM
